Test results as given in patent US20260034119A1, “5-METHOXY-N,N-[…][…], THEIR […], AND METHODS FOR TREATMENT OF NEUROLOGICAL, […], AND SUBSTANCE USE DISORDERS” (priority 2023, published 2026).
“Also recorded” adds a separate entry of the source.

Experiments:
[1] = molecular target: T1, OCT2 (Homo sapiens, UniProt O15244); assay: OCT2 uptake inhibition; format: cell-based; settings: compared with 5-HT1A
T1 construct: expressed in transfected cells; host or cells: Flp-In T-Rex cell line (ThermoFisher), tetracycline-induced
T1 sequence (O15244 1-555): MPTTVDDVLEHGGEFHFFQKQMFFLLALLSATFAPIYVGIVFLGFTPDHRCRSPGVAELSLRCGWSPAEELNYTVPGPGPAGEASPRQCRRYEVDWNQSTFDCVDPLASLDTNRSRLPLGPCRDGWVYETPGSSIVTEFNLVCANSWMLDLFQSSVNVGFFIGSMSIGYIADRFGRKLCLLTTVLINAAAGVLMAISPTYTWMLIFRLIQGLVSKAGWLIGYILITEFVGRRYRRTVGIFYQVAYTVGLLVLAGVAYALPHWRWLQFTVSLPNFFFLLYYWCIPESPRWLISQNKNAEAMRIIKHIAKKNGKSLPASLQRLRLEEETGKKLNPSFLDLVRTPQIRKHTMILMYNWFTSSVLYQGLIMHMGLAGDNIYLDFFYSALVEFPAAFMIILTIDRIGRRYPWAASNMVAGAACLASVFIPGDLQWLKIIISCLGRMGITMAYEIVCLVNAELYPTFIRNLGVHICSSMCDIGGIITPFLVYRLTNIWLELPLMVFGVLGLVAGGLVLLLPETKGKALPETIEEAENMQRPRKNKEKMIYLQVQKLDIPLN
Experimental: (§1) Inducible cell lines stably expressing OCT1, OCT2, or PMAT were generated using the Flp-In T-Rex cell line (ThermoFisher) according to manufacturer recommendations. Cells were maintained in DMEM supplemented with 10% FBS, 100 μg/ml hygromycin B (GoldBio), and 10 μg/ml blasticidin (GoldBio). To measure uptake inhibition, cells were seeded into poly-L-lysine coated clear-bottom 384-well plates at a density of 25,000 cells per well in DMEM containing 10% FBS and 2 μg/ml of tetracycline (Sigma) to induce transporter expression. […] Cells were incubated with drug for 30 min at 37° C. Fluorescent substrate was then added to the cells. […] Cells were incubated with respective substrates for an hour at 37° C. OCT2 cells were read directly in a Victor NIVO plate reader using 495 nm excitation and 580 emission filter for 0.1 s. OCT1 and PMAT cells were washed in HBSS supplemented with 20 mM HEPES pH 7.4 before reading in a Victor NIVO plate reader using 435 nm excitation and 480 nm emission filter for 0.1 s.

[2] = test system: C57BL/6J mice; assay: Head twitch response (HTR); format: in vivo, mouse; settings: s.c., presence or absence of 5-HT1A antagonist WAY-100635
Experimental: The head-twitch response evaluation was performed by trained observers who were blinded to both drug and dose. Mice were habituated to the testing room 30 min. The body weight of each mouse was recorded. The HTR was defined as a rapid rotational movement of the head around the longitudinal axis of the animals' body. Mice were administered with vehicle or WAY100,635 (1 mg/kg or 2 mg/kg, sc). Fifteen minutes after the pretreatment injection mice were administered either 4F, 5-MeO-MET (0.1, 0.3, 1 or 3 mg/kg, sc) or 5-MeO-MET (0.3, 1, 3, and 10 mg/kg, sc) and placed in a novel observation cage. An overhead camera (GoPro HERO9 at a 120 Hz, San Mateo, CA, US) recorded their movements. Observers scored HTR from recorded footage for the first 10-min period.

[3] = molecular target: T2, PMAT (Homo sapiens, UniProt Q7RTT9); assay: PMAT uptake inhibition; format: cell-based; settings: compared with 5-HT1A
T2 construct: expressed in transfected cells; host or cells: Flp-In T-Rex cell line (ThermoFisher), tetracycline-induced
T2 sequence (Q7RTT9 1-530): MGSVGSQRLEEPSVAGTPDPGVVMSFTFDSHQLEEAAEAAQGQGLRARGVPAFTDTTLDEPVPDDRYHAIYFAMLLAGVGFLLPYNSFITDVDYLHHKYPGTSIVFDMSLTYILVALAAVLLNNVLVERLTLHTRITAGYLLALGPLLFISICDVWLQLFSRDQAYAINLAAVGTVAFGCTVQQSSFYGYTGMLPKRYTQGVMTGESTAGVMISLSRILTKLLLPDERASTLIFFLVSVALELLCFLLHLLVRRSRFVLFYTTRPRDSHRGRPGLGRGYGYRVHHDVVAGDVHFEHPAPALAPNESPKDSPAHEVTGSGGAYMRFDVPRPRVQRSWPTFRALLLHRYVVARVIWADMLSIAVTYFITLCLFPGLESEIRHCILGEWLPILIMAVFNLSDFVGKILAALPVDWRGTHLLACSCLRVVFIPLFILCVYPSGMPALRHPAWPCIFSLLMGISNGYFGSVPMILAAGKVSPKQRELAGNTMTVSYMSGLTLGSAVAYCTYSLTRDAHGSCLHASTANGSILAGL
Experimental: as §1

[4] = test system: mice; assay: Open field locomotor activity; format: in vivo, mouse
[5] = molecular target: T3, SERT (Homo sapiens, UniProt P31645); assay: Serotonin transporter (SERT) uptake inhibition; format: cell-based; settings: compared with 5-HT1A
T3 construct: expressed in transfected cells; host or cells: HEK293-T
Experimental: The uptake inhibition assay was performed the following day. […] To each well, 30 μl of HBSS containing 20 mM HEPES, 0.1% BSA, and 0.01% ascorbic acid and 15 μl of 3× drug dilutions were added. Cells were then incubated at 37° C. for 45 min. A final concentration of 10 μM FFN246 (Aobious) (Henke et al. 2018) was added to each well, and cells were incubated for an additional hour at 37° C. […] Data was plotted as a function of drug concentration, normalized to % citalopram inhibition, and analyzed using “log(inhibitor) vs. response” in GraphPad Prism 8.0.

[6] = molecular target: T4, 5-HT1A N386V (Homo sapiens, UniProt P08908, N386V); assay: Gi1 BRET at mutant 5-HT1A N386V; format: cell-based; settings: Gi1 BRET, 5-HT1A N386V^7.39
T4 construct: expressed in transfected cells; host or cells: HEK293-T
T4 sequence (P08908 1-422 N386V): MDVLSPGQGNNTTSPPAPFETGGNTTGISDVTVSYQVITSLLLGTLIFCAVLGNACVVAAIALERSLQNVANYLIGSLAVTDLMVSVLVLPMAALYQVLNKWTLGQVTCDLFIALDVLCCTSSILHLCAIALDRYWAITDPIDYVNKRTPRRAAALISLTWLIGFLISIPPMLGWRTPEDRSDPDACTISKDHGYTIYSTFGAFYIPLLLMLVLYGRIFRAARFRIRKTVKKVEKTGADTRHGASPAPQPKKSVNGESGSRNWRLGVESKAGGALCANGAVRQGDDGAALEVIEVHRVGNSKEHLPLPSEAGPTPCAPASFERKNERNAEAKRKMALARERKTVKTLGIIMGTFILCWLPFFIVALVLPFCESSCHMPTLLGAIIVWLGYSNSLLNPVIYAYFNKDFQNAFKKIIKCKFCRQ

T3 sequence (P31645 whole entry, species assumed): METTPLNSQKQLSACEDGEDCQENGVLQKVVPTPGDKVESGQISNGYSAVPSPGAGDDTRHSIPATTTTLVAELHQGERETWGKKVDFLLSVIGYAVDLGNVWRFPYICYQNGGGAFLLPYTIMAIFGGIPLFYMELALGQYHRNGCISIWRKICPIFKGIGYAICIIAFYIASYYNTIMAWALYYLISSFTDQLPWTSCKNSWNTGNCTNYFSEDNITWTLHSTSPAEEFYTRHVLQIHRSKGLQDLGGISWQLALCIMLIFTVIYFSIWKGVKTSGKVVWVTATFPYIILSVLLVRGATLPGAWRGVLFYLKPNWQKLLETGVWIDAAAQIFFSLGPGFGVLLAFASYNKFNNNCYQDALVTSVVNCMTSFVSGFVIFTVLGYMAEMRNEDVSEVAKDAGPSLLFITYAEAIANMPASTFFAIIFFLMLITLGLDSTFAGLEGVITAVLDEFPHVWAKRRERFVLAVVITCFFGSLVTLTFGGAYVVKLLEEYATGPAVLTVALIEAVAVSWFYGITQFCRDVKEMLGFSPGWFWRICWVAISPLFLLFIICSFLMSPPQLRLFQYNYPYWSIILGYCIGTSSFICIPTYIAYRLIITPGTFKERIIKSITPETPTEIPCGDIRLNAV

SMILES: COc1ccc2[nH]cc(CCN3CCCC3)c2c1F [4-F, 5-MeO-PyrT, 4-Fluoro, 5-methoxypyrrolidinyl-tryptamine]
- activity at other neurotransmitter transporters (OCT2) [1]: substantially lower activity
- head-twitch response (HTR), measure of 5-HT2A-mediated hallucinogenic activity [2]: no preclinical signs of hallucinogenic effects; also recorded: did not produce notable HTR
- activity at other neurotransmitter transporters (PMAT) [3]: substantially lower activity
- lowest dose producing suppression of locomotion ([4]; mice, s.c.): 0.03 mg/kg
- sedative effects after WAY-100635 pretreatment ([4]; open field, WAY-100635 1 mg/kg s.c. 15 min prior, compound 1 mg/kg s.c.): negates the sedative effects
- activity at the serotonin transporter [5]: substantially lower activity
- pEC50 [6]: (8.52,
- EC50 ([6]; read-out: EC50): 3 nM
